# According to PubChem BioAssay (NCI):
#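 Cells were grown in 96-well plates and exposed to each compound for 48 hours at five concentrations; endpoints were interpolated linearly between bracketing concentrations, or set to the highest concentration if not reached. The concentration for 50% growth inhibition is given as GI50. TGI: concentration producing complete growth inhibition.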
# System: MDA-MB-468 breast
# Assay: NCI-60 cell line screen, 48 h
SMILES,GI50 [nM],TGI [nM]
CC1SC(c2ccccc2)N(CCc2cccs2)C1=O (centres undefined),2430,8420
CCN(CC)CC(C)Nc1ccc([N+](=O)[O-])c2sc3ccccc3c(=O)c12 (centres undefined),1810,5790
CC1(C)CC(=O)c2c(C(F)(F)F)nn(-c3ccc(C(N)=O)c(NC4CCC(OC(=O)CN)CC4)c3)c2C1 (centres undefined),24.3,68.3
Cc1ccc(-c2nc(C(Cl)Cl)nc3cc(-c4ccccc4)nn23)cc1,2940,
COc1cc(C2CC(c3ccc4c(c3)OCO4)=NN2C=O)cc(OC)c1OC (centres undefined),2050,6810
COc1cccc2c1c(C(=O)C(=O)Nc1cc(C)no1)cn2Cc1ccc(F)cc1,2420,17700
COc1ccc2sc3c(NCCCN(C)C)nc4ccccc4c3c(=O)c2c1,1620,3210
O=C(NCCO)Nc1ccc(-c2nc(N3CCOCC3)c3cccn3n2)cc1,88.9,2350
CCCC(C)c1cc(Cc2cc(Cl)cc(Cl)c2O)c(O)c(Cc2cc(Cl)cc(Cl)c2O)c1 (centres undefined),393,5070
COc1ccc(-c2n/c(=C\c3c(O)[nH]c4ccc(OC)cc34)cc3c2=Nc2ccccc2-3)cc1,1560,3460
COc1ccc2nc(-c3ccc(-c4noc(-c5cc(OC)c(OC)c(OC)c5)n4)cc3)[nH]c2c1,6540,26300
COC(=O)[C@@]1(C)CC[C@]2(C)CC[C@]3(C)C4=CC=C5C(=CC(=O)C(O)=C5C)[C@]4(C)[C@@H](O)C[C@@]3(C)[C@@H]2C1,9710,21900
Cc1cc(N(CCCl)CCCl)ccc1C=Nc1ccc(-c2csc(Cc3ccccc3)n2)cc1,160,2860
NCCOCCOCCNc1nc(Cc2ccccc2)nc(NCCCN2CCCC2=O)n1,> 100000,> 100000
CCCCC(CC)CN=C(N)NC(N)=NCCCCCCN=C(N)NC(N)=NCC(CC)CCCC (centres undefined),1270,2730
OC(c1cc(-c2ccccc2)nc2ccc(Cl)cc12)C1CCCCN1 (centres undefined),2010,3860
Cn1cc(-c2ccc3occ(-c4cccc(-c5ccncc5)c4)c3n2)cn1,240,941
CC(C)C[C@H]1C(=O)O[C@H](C(C)C)C(=O)N(C)[C@@H](C(C)C)C(=O)O[C@H](C(C)C)C(=O)N(C)[C@@H](C(C)C)C(=O)O[C@H](C(C)C)C(=O)N1C,2010,9350
N=C(N)c1ccc(-c2ccc(-c3cc(Cl)cc(Cl)c3)o2)nc1,1690,3290
CC(C)c1cc(-c2n[nH]c(=O)n2-c2ccc3c(ccn3C)c2)c(O)cc1O,< 14.3,327
OC1CCN(CCCOc2c3ccc(Cl)cc3nc3c2oc2ccc(Cl)cc23)CC1,1820,7880
COC(=O)[C@H](C[C@H](Cc1ccccc1)NC(=O)c1csc([C@@H](C[C@H](C(C)C)N(C)C(=O)[C@@H](NC(=O)[C@H]2CCCCN2C)C(C)C)OC(C)=O)n1)NC(=O)OCc1ccccc1,< 0.9,< 0.9

SMILES,GI50 [nM],TGI [nM]
Nc1nc2c(c3ncncc13)C(c1cccc(C(F)(F)F)c1)Cc1ncncc1-2 (centres undefined),2780,8890
CN1CCC(n2cnc(-c3ccc(F)cc3)c2-c2ccnc(NCCO)n2)CC1,10000,> 25000
O=C(CCCCCCC(=O)Nc1ccc(N(CCCl)CCCl)cc1)NO,232,1110
COc1ccc(-c2c3c(N)nc(-c4ccncc4)nc3nc3c2c(C)nn3-c2ccccc2)cc1,7750,> 100000
O=c1cc(-c2ccccc2)[nH]c2ccccc12,481,
COc1cc(/C=C/c2cc(O)c3cc(C(C)=O)c(=O)oc3c2)cc2c1O[C@]1(C)CC[C@@H](O)C(C)(C)[C@H]1C2,3870,20500
O=C(O)/C=C\C(=O)N1C/C(=C\c2ccccc2Cl)C(=O)/C(=C/c2ccccc2Cl)C1,1540,3460
CN(C)CC(=O)Nc1ccc(Cn2nnc3c2C(=O)c2nnn(Cc4ccc(NC(=O)CN(C)C)cc4)c2C3=O)cc1,104,258
COc1ccc(/C(=C2/O[C@@H]([C@H]3COC(C)(C)O3)[C@H]3OC(C)(C)O[C@@H]23)c2cc(OC)c(OC)c(OC)c2)cc1O,25600,63600
COc1ccc2c(c1)cn1c3ccc(O)cc3nc(N)c21,747,4730
Cc1ccccc1[P+](Cc1ccccc1)(c1ccccc1)c1ccccc1,367,4000
CCc1nccc2c1nc(-c1nonc1N)n2CC,> 25000,> 25000
COc1ccc(-c2csc(N(C(=O)N3CCN(c4cc5c(cc4F)c(=O)c(C(=O)O)cn5C4CC4)CC3)c3ccccc3)n2)cc1,2550,8740
Oc1cccc2ccc(N/N=C/c3cc(CN4CCCCC4)c(O)c4ncccc34)nc12,40.1,533
C=CCOc1cccc(/C=C2\SC(=Nc3ccc(O)cc3)NC2=O)c1,416,4170
COc1cc2c(c(OC)c1)C1c3ccccc3NC(=O)N1CC2 (centres undefined),2550,8570
COc1ccc(/C=C2\CCCC3=C2N=C2SC(C)=NN2C3c2ccc(OC)c(OC)c2)cc1OC (centres undefined),2610,9090
O=C1c2cccnc2C(=O)c2nc3cc(N4CCN(C5CC5)CC4)ccc3nc21,1680,4030
COc1cccc(-n2ncc3c(N/N=C/c4ccc(C(=O)NCCN(C)C)cc4)ncnc32)c1,853,5160
CC[C@@H](C(=O)O)C1CC[C@H](C)C([C@@H](C)[C@H](O)[C@H](C)C(=O)[C@H](CC)C2O[C@]3(C=C[C@@H](O)[C@]4(CC[C@@](C)(C5CC[C@](O)(CC)[C@H](C)O5)O4)O3)[C@H](C)C[C@@H]2C)O1 (some centres undefined),292,4340
CC#C[C@]1(O)CC[C@H]2[C@@H]3CCC4=CC(=O)CCC4=C3[C@@H](c3ccc4c(c3)OCO4)C[C@@]21C,101000,559000
